Assay results as given in ChEMBL document CHEMBL4265881, “Synthesis and bioactivity of 3,5-dimethylpyrazole derivatives as potential PDE4 inhibitors” (Bioorg Med Chem Lett, 2018).

What was measured:
[1] = molecular target: 3',5'-cyclic-AMP phosphodiesterase 4B (Homo sapiens, UniProt Q07343); assay: Inhibition of human U937 cells-derived PDE4B using [3H]-cAMP as substrate measured after 30 mins
[2] = Inhibition of PDE4 in human PBMC assessed as reduction in LPS-stimulated TNFalpha release preincubated for 30 mins followed by LPS stimulation for 18 hrs by TR-FRET assay; type: cell-based
[3] = molecular target: 3',5'-cyclic-AMP phosphodiesterase 4D (Homo sapiens, UniProt Q08499); assay: Inhibition of human U937 cells-derived PDE4D using [3H]-cAMP as substrate measured after 30 mins
Mus musculus = assay: Anti-inflammatory activity in Swiss albino mouse model of sepsis assessed as inhibition of LPS-induced TNFalpha release at 10 mg/kg, po; type: functional
Rattus norvegicus = assay: Anti-inflammatory activity in Sprague-Dawley rat model of LPS-induced asthma/COPD assessed as inhibition of neutrophilia in BALF at 10 mg/kg, po; type: functional

3',5'-cyclic-AMP phosphodiesterase 4D, sequence (Q08499 whole entry): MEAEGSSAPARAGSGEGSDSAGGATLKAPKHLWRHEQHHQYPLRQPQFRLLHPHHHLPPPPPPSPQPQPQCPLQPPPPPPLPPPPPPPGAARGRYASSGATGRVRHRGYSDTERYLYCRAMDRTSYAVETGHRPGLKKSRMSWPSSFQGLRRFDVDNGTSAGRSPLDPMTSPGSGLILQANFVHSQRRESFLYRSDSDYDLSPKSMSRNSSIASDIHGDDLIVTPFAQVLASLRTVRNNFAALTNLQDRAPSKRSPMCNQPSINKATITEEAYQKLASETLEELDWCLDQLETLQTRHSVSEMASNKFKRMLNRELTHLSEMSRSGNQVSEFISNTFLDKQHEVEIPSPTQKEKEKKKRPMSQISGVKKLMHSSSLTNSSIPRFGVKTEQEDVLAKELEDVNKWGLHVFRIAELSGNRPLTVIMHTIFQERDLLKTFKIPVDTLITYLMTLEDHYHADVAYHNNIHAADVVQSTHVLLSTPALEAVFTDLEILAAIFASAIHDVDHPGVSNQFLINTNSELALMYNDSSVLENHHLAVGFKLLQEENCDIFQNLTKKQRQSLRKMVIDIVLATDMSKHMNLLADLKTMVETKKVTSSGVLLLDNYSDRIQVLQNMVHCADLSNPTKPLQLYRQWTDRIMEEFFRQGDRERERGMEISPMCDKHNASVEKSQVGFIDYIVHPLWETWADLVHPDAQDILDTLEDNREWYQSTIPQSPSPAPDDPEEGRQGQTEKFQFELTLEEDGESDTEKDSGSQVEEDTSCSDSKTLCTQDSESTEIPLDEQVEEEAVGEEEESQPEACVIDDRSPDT
3',5'-cyclic-AMP phosphodiesterase 4B, sequence (Q07343 whole entry): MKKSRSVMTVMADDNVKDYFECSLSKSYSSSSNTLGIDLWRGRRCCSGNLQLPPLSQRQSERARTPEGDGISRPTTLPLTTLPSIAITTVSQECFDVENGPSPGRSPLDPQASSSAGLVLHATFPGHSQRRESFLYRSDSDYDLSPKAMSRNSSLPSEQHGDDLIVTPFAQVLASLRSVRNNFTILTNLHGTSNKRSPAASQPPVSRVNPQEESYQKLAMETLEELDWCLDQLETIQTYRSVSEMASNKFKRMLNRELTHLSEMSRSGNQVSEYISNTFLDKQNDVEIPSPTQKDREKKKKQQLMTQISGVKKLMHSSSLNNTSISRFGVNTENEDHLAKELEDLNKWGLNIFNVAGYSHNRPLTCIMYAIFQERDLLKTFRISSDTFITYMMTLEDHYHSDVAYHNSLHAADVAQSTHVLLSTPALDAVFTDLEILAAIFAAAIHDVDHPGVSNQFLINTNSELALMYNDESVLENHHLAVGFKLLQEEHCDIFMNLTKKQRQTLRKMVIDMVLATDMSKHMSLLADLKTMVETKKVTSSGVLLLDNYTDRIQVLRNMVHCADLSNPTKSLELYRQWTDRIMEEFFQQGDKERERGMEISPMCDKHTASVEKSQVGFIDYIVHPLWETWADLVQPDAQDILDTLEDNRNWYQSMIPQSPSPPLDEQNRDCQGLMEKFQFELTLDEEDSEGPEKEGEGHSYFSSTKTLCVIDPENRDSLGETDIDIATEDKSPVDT

Row | SMILES | IC50 [1] [µM] | IC50 [2] [µM] | IC50 [3] [µM] | inhibition in vivo at 10 mg/kg (Mus musculus) [%] | inhibition in vivo at 10 mg/kg (Rattus norvegicus) [%]
1 | Cc1cc(C)n(C(=O)c2ccc(-c3cccc([N+](=O)[O-])c3)o2)n1 | 35.9 | 69.3 | – | – | –
2 | Cc1cc(C)n(C(=O)c2ccc(-c3cccc(Cl)c3)o2)n1 | 20.9 | 58.4 | – | – | –
3 | Cc1cc(C)n(C(=O)c2ccc(-c3ccccc3)o2)n1 | 70.3 | 178 | – | – | –
4 | Cc1cc(C)n(C(=O)c2ccc(-c3ccccc3Cl)o2)n1 | 52.4 | 112 | – | – | –
5 | Cc1cc(C)n(C(=O)c2ccc(-c3ccccc3[N+](=O)[O-])o2)n1 | 62.7 | 168 | – | – | –
6 | Cc1cc(C)n(C(=O)c2ccc(-c3ccc([N+](=O)[O-])cc3)o2)n1 | 15.4 | 41.7 | 87.3 | – | –
7 | COc1ccc(C2CNC(=O)C2)cc1OC1CCCC1 (centres undefined) [ROLIPRAM] | – | 16.5 | – | 41.7 | 32.8
8 | Cc1ccc(-c2ccc(C(=O)n3nc(C)cc3C)o2)cc1 | 8.4 | 37.1 | 52.9 | – | –
9 | Cc1cc(C)n(C(=O)c2ccc(-c3c(F)cccc3F)o2)n1 | 14.5 | 88.7 | 88.2 | – | –
10 | Cc1cc(C)n(C(=O)c2ccc(-c3cccc(F)c3)o2)n1 | 20.2 | 70.8 | – | – | –
11 | Cc1cc(C)n(C(=O)c2ccc(-c3ccc(F)cc3)o2)n1 | 7.2 | 24.3 | 49.3 | – | –
12 | Cc1cc(C)n(C(=O)c2ccc(-c3ccc(Br)cc3)o2)n1 | 51.1 | 154 | – | – | –
13 | Cc1cc(C)n(C(=O)c2ccc(-c3ccccc3F)o2)n1 | 45.3 | 98.2 | – | – | –
14 | COc1ccc(-c2ccc(C(=O)n3nc(C)cc3C)o2)cc1 | 1.7 | 10.4 | 9.6 | 43.1 | 36.5
15 | Cc1cc(C)n(C(=O)c2ccc(-c3ccc(Cl)cc3)o2)n1 | 3.9 | 25.1 | 26.4 | – | –
16 | Cc1cc(C)n(C(=O)c2ccc(-c3ccc(F)cc3F)o2)n1 | 3.2 | 19.2 | 19.6 | 29.6 | 24.2
